{"source": "patent EP1013664A1", "about": "“Antigenic determinants for drug-specific T lymphocytes from drug-allergic patients” (Max-Planck-Gesellschaft zur Förderung der Wissenschaften …, priority 1998, dated 2000)", "key": {"[1]": {"system": "tetanus toxoid-specific T cell clone 1ES4", "type": "cell-based, human"}, "[2]": {"system": "clone ES5.13", "experiment": "Cytokine measurement in culture supernatants of clone ES5.13", "type": "cell-based, human", "settings": "for interference on Pen G-induced IL2 secretion: added together with 0.25 mg/ml of Pen G; for cytokine response to the derivative alone: without Pen G", "protocol": "(§1) For cytokine measurement, 10^5 T cells and 5 x 10^4 autologous, irradiated EBV-B cells were mixed in 200 µl of complete RPMI-FCS medium containing appropriate Ag concentration. After overnight incubation, supernatants were collected and tested for the concentration of IL2, IFNγ and IL4. IL2 was quantified on a IL2-dependent CTLL line. IFNγ was measured by a sandwich ELISA as described (12). IL-4 was measured using the Duo-Set ELISA kit provided by Genzyme Diagnostics, Cambridge, MA. Eventually, cells were kept in culture for another 24 h and cellular proliferation was measured by thymidine uptake as described above.\nIn a first set of experiments we studied the effect of the Pen V and Amp derivatives on the T cell phenotype induced by Pen G on two hapten-specific CD4^+ cell clones."}, "[3]": {"system": "clone BAM25", "experiment": "Cytokine measurement in culture supernatants of clone BAM25", "type": "cell-based, human", "settings": "for cytokine response to the derivative alone: without Pen G"}, "[4]": {"system": "mouse Th1 cells", "settings": "through specific inhibition of p38 MAP kinases; cited from earlier work"}, "[5]": {"system": "PBMC from donors allergic to β-lactams", "experiment": "Proliferative response of primary PBMC cultures to Pen G (3H-thymidine incorporation)", "type": "cell-based, human", "settings": "5 days incubation", "protocol": "(§2) Cells at a concentration of 3 x 10^5/w were stimulated with 3-fold dilutions of Pen G from 3 mg/ml to 0.1 µg/ml. After 5 days incubation at 37°C in 5% CO2, the proliferative response was determined, in one of the plates, as the ^3H-thymidine incorporation after 16 h incubation with […] = 37 kBq ^3H-thymidine (Dupont, Boston, MA). Cells were harvested on GF/A-filters (Dunn Labortechnik GmbH, Asbach, Germany) and the incorporation was measured in an automatic β-counter (Inotech, Asbach, Germany). The second plate was further expanded in IL2-containing medium for 4 days. Cells were then pooled for any given Pen G concentration, washed and rested in the absence of IL2. After another 4 days, cells were harvested and analysed for TCR expression by cell surface staining and IL4/IFNγ production by intracellular staining.\nPatients BAM, CAS and ES participating to this study developed allergic reactions after treatment with β-lactam antibiotics and their clinical data are summarized in Table I. At the time of diagnosis they all presented different symptoms after treatment with β-lactams as well as positive LTT in vitro (Table I; ref. 2, 4 and data not shown). […] After 5 days of incubation, the proliferative response was measured in one of the cultures by thymidine incorporation. […] The intensity of the response was dose-dependent, with maximal proliferation at 0.3 mg/ml of Pen G."}, "[6]": {"system": "Pen G-specific T cell clones", "experiment": "Proliferation and IL4/IFNγ secretion of a panel of T cell clones at different Pen G doses", "type": "cell-based, human", "protocol": "T cell clones were generated from Pen G specific T cell lines. Freshly isolated PBMC were stimulated with 1, 0.3, 0.1 mg/ml of Pen G at a density of 2 x 10^5 cells/well in a final volume of 200 µl of complete RPMI containing 5 % HS in 96-well flat bottom culture plates. After 5 days at 37°C and 5 % CO2, 25 U/ml of IL2 was added to the wells. After another 4 days the cultures were pooled, rested for 3 days in the absence of IL2 and subjected to a second round of restimulation using irradiated autologous PBMC as APC and the same dose of Pen G given during the first restimulation. After 3 days the different cultures were again expanded in IL2 containing medium and then cloned by limiting dilution. T cell blasts were seeded at 0.3 cells/well in Terasaki plates (Nunc, Roskilde, Denmark) in the presence of 1 µg/ml PHA and 10^4 irradiated allogeneic PBMC in complete RPMI medium containing 5 % HS and 250 U/ml IL-2. The T cell clones obtained were maintained in culture by periodic stimulation in the presence of irradiated allogeneic PBMC, PHA and IL2.\nas §1\nIn order to evaluate the role of Pen G doses in inducing functional differentiation of established T lymphocytes, a panel of independent Pen G-specific T cell clones was prepared. PBMC from donors two were subjected to two rounds of stimulation, in vitro, with Pen G at concentrations of 1, 0.3 and 0.1 mg/ml in three independent T cell lines. After expansion in IL2-containing medium, each line was independently cloned by limiting dilution. A total of 18 Pen G-specific T cell clones were obtained from donor two and 24 from donor one. The hapten-specific T cell phenotype was induced stimulating each T cell clone with 3-fold dilution of Pen G, from 3 mg/ml to 0.03 mg/ml concentration, in the presence of irradiated autologous EBV-B cells. After 24 h incubation, supernatants were harvested and processed for cytokine measurement, while cells were kept in culture for another 24 h and T cell proliferation was measured by thymidine uptake. We then examined IL4 and IFNγ secretion induced in the presence of the highest and lowest Pen G dose able to trigger cellular proliferation, considering SI values ≥ 2.0 as positive response."}, "[7]": {"system": "PBMC from donors allergic to β-lactams", "experiment": "Flow cytometric analysis of intracellular IFNγ and IL4 production in Pen G-stimulated PBMC cultures", "type": "cell-based, human", "settings": "restimulated with PMA and ionomycin, intracellular staining", "protocol": "as §2\nIntracellular staining for cytokines was performed following the protocol described by Murphy et al. (12), with few modifications. […] Samples were resuspended in PBS/BSA and analyzed on a FACScan flow cytometer (Becton Dickinson & Co.). […] Results were analyzed using Cellquest software. T cells were detected by standard surface staining using the PE-conjugated anti human TCRαβ antibody (Clone BMA03, Immunotech, Marseille, France). […]"}, "[8]": {"settings": "high concentration, together with 0.25 mg/ml of Pen G"}, "[9]": {"settings": "added together with 0.25 mg/ml of Pen G, 24 h"}, "[10]": {"settings": "0.25 mg/ml of Pen G only, 24 h incubation"}}, "data": [{"smiles": "CC1(C)S[C@@H]2[C@H](NC(=O)COc3ccccc3)C(=O)N2[C@H]1C(=O)O", "note": "[Pen V, Penicillin V]", "values": [{"measurement": "concentration at which IFNγ secretion is completely abrogated", "setting": "[1]", "value": "≥ 0.1", "unit": "mg/mL"}, {"measurement": "effect on IL2 production", "setting": "[1]", "value": "unaffected"}, {"measurement": "interference on Pen G-induced IL2 secretion", "setting": "[2]", "value": "no interference"}, {"measurement": "effect on IL4 production", "setting": "[2]; [8]", "value": "only a marginal reduction"}, {"measurement": "cytokine response to the derivative alone", "setting": "[2]", "value": "None of them responded"}, {"measurement": "concentrations at which IFNγ production is completely abrogated", "setting": "[3]; [9]", "value": "≥ 0.1", "unit": "mg/mL"}, {"measurement": "effect on IL4 secretion", "setting": "[3]; [9]", "value": "without affecting IL4 secretion"}, {"measurement": "reduction of the amount of IL2", "setting": "[3]; [9]", "value": "about 50%"}, {"measurement": "cytokine response to the derivative alone", "setting": "[3]", "value": "None of them responded"}]}, {"smiles": "C[S+]([O-])c1ccc(-c2nc(-c3ccncc3)c(-c3ccc(F)cc3)[nH]2)cc1", "note": "(stereo not drawn) [SB203580]", "values": [{"measurement": "effect on IFNγ", "setting": "[4]", "value": "selectively induces IFNγ downmodulation"}]}, {"smiles": "CC1(C)S[C@@H]2[C@H](NC(=O)Cc3ccccc3)C(=O)N2[C@H]1C(=O)O", "note": "[Pen G, Penicillin G]", "values": [{"measurement": "Pen G concentration of maximal proliferation", "setting": "[5]", "value": 0.3, "unit": "mg/mL"}, {"measurement": "IL2 (100% value)", "setting": "[2]; [10]", "value": 40.3, "unit": "SI"}, {"measurement": "IL4 (100% value)", "setting": "[2]; [10]", "value": 5414, "unit": "pg/mL"}, {"measurement": "lowest doses capable of triggering cellular proliferation", "setting": "[6]; clones from donor one, SI ≥ 2.0 as positive response", "value": "≥ 0.3", "unit": "mg/mL"}, {"measurement": "dose at which clones could secrete IL4", "setting": "[6]; clones from donor one, only at the highest dose tested", "value": 3, "unit": "mg/mL"}, {"measurement": "clones in which lower concentration induced higher level of IFNγ secretion", "setting": "[6]; clones from donor two", "value": "14 of the 18"}, {"measurement": "clones able to shift from type 0 to type 1 responses", "setting": "[6]; clones from donor two, number of clones", "value": 5}, {"measurement": "lowest dose capable of triggering cellular proliferation", "setting": "[6]; clones from donor two, SI ≥ 2.0 as positive response", "value": 0.03, "unit": "mg/mL"}, {"measurement": "clones able to shift their phenotype from type 0 to type 1", "setting": "[6]; clones isolated from donor two", "value": 35, "unit": "%"}, {"measurement": "IFNγ (100% value)", "setting": "[3]; [10]", "value": 6637, "unit": "pg/mL"}, {"measurement": "IL2 (100% value)", "setting": "[3]; [10]", "value": "80.5 SI of CTLL cells"}, {"measurement": "IL4 (100% value)", "setting": "[3]; [10]", "value": 5788, "unit": "pg/mL"}, {"measurement": "cytokine pattern", "setting": "[3]; Pen G 1 mg/ml, behaved as a Th2 clone", "value": "secreting IL4 but not IFNγ"}, {"measurement": "cells expanded upon in vitro stimulation", "setting": "[7]", "value": "mainly IL4^+ and IL4^+IFNγ^+ cells are expanded"}]}, {"smiles": "CC1(C)S[C@@H]2[C@H](NC(=O)[C@H](N)c3ccccc3)C(=O)N2[C@H]1C(=O)O", "note": "[Amp, Ampicillin]", "values": [{"measurement": "effect on cytokine secretion", "setting": "[1]", "value": "no effect"}, {"measurement": "interference on Pen G-induced IL2 secretion", "setting": "[2]", "value": "no interference"}, {"measurement": "cytokine response to the derivative alone", "setting": "[2]", "value": "None of them responded"}, {"measurement": "effect on the Pen G-induced cytokine pattern", "setting": "[3]; [9]", "value": "did not affect"}, {"measurement": "effect on IFNγ secretion", "setting": "[3]; [8]", "value": "slight reduction"}, {"measurement": "cytokine response to the derivative alone", "setting": "[3]", "value": "None of them responded"}]}]}
